Source: patent US20160263155A1, “T CELL RECEPTORS DIRECTED AGAINST THE PREFERENTIALLY EXPRESSED ANTIGEN OF MELANOMA AND USES THEREOF” (LEIDEN UNIVERSITY MEDICAL CENTER, priority 2015, published 2016)
“Also recorded” adds a separate entry of the source.

Key:
cells = assay: Amount of AP1903 needed in vitro for effective signaling of cells; format: cell-based
Procedure: The fixed dose of AP1903 for injection used, for example, may be 0.4 mg/kg intravenously infused over 2 hours. The amount of AP1903 needed in vitro for effective signaling of cells is about 10-100 nM (MW: 1412 Da). This equates to 14-140 μg/L or ˜0.014-0.14 mg/kg ([…]). The dosage may vary according to the application, and may, in certain examples, be more in the range of 0.1-10 nM, or in the range of 50-150 nM, 10-200 nM, 75-125 nM, 100-500 nM, 100-600 nM, 100-700 nM, 100-800 nM, or 100-900 nM. Doses up to 1 mg/kg were well-tolerated in the Phase I study of AP1903 described above.

[1] = test system: inducible caspase-9 expressing T cells; assay: CASPALLO and DOTTI trials: AP1903 given to subjects treated with T cells containing the iCaspase-9 suicide switch; format: in vivo, human
Procedure: The DOTTI trial is a follow-up study to the CASPALLO trial. Three subjects subsequently developed Grade I & II acute GVHD and were treated with a single dose of the dimerizing drug AP1903. Four subjects are alive at a median of 476 days after transplant (range 278-674 days), and who had received AP1903.

[2] = test system: CD3+ΔCD19+ cells (iCasp9+ T cells); assay: Phase I clinical trial of allodepleted T cells transduced with inducible caspase-9 suicide gene after haploidentical stem cell transplantation; format: in vivo, human
From the text: This example presents results of a phase 1 clinical trial using an alternative suicide gene strategy. Briefly, donor peripheral blood mononuclear cells were co-cultured with recipient irradiated EBV-transformed lymphoblastoid cells (40:1) for 72 hrs, allodepleted with a CD25 immunotoxin and then transduced with a retroviral supernatant carrying the iCasp9 suicide gene and a selection marker (ΔCD19); ΔCD19 allowed enrichment to >90% purity via immunomagnetic selection.
Patients developing grade 1 GvHD were treated with 0.4 mg/kg AP1903 as a 2-hour infusion. Protocols for administration of AP1903 to patients grade 1 GvHD were established as follows. Patients developing GvHD after infusion of allodepleted T cells are biopsied to confirm the diagnosis and receive 0.4 mg/kg of AP1903 as a 2 h infusion. […] Patients developing grades 2-4 GvHD were administered standard systemic immunosuppressive therapy per institutional guidelines, in addition to the AP1903 dimerizer drug.
Instructions for preparation and infusion: AP1903 for injection is obtained as a concentrated solution of 2.33 ml in a 3 ml vial, at a concentration of 5 mg/ml, (i.e., […] per vial). Prior to administration, the calculated dose was diluted to 100 mL in 0.9% normal saline for infusion. AP1903 for injection (0.4 mg/kg) in a volume of 100 ml was administered via IV infusion over 2 hours, using a non-DEHP, non-ethylene oxide sterilized infusion set and infusion pump.
Three patients received iCasp9^+ T cells after haplo-CD34^+ stem cell transplantation (SCT), at dose levels between about 1×10^6 to about 3×10^6 cells/kg.
Infused T cells were detected in vivo by flow cytometry (CD3^+ΔCD19^+) or qPCR as early as day 7 after infusion, with a maximum fold expansion of 170±5 (day 29±9 after infusion).

Cell A T cells (iCasp9) = assay: In vivo Cell A response to rimiducid in NSG mice (flow cytometry of spleens); parameters: species or system NSG mouse; details: 24 hours after rimiducid 5 mg/kg i.p.; 42±1.1% in untreated mice; p<0.0001
Procedure: 16 mice received an i.v. injection of 1×10^7 Cell A T cells on Day 0 as outlined above. Forty eight hours later, eight of the mice were injected i.p. with rimiducid at 5 mg/kg to evaluate activation of iCasp9 and apoptosis of the Cell A T cells; the other eight mice were left untreated. […] Thus, the iCasp9 encoded within Cell A represents a functioning safety switch that can be triggered in vivo to eliminate Cell A cells.

[3] = test system: Cell A T cells (iCasp9 suicide gene); assay: Overnight culture of spleen and bone marrow cells from Cell A-treated animals with or without rimiducid; format: cell-based, NSG mouse; details: 10 nM rimiducid overnight; p<0.05
Procedure: A fraction of spleen and bone marrow cells were isolated from the Cell A-treated animals as analyzed above, and were cultured overnight with or without 10 nM rimiducid in order to determine the sensitivity of the suicide switch.

[4] = test system: T cells transduced with the PRAME-TCR in combination with the iCasp9; assay: PRAME reactivity of T cells transduced with PRAME-TCR in combination with iCasp9 after AP1903 treatment; format: cell-based, human; details: 100 nM AP1903 for 18 h (overnight)
Procedure: The TCRAV and TCRBV gene usage of clone AAV54 (also called clone 54 or HSS1) was determined using reverse transcriptase (RT)-PCR and sequencing^5. […]
FIG. 12, Different retroviral vectors encoding for the PRAME-TCR were transduced into virus specific T cells and the reactivity is measured against target cells loaded with different concentrations of the PRAME peptide and against two melanoma cell-lines: FM6 positive for HLA-A2 and PRAME, and M13046/2 positive for HLA-A2 but negative for PRAME. […]
FIG. 15 Different retroviral vectors encoding for the PRAME-TCR were transduced into virus specific T cells and the reactivity was measured against target cells (T2 cells) loaded with PRAME peptide and two PRAME positive and HLA-A2 positive melanoma cell-lines: 518.A2 and FM6, and one PRAME negative but HLA-A2 positive melanoma cell line M13046/2. […]

[5] = cited from earlier work
[6] = biological target: T1, PRAME peptide on HLA-A*02:01 (human); assay: multimer staining
T1 peptide: SLLQHLIGL

[7] = test system: chimeric Caspase-9 polypeptide; assay: Caspase mutant classes and basal activity (Table 3); format: cell-based, human; details: class heading of Table 3
Ewing sarcoma cell lines = assay: HLA-class I expression of Ewing sarcoma cell lines after interferon treatment; format: cell-based, human; details: 48 h, 300 IU/ml IFN-alpha or 100 IU/ml IFN-gamma
[8] = test system: neuroblastoma (NB) cell lines; assay: HLA-class I expression of neuroblastoma cell lines after interferon treatment; format: cell-based, human; details: 48 h, 300 IU/ml IFN-α or 100 IU/ml IFN-γ

chimeric Caspase-9 polypeptide, sequence (as listed by the source, change not shown): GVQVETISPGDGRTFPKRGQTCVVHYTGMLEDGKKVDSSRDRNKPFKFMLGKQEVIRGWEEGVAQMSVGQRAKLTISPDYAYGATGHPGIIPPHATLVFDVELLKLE

CC[C@H](C(=O)N1CCCC[C@H]1C(=O)O[C@H](CCc1ccc(OC)c(OC)c1)c1cccc(OCC(=O)NCCNC(=O)COc2cccc([C@@H](CCc3ccc(OC)c(OC)c3)OC(=O)[C@@H]3CCCCN3C(=O)[C@@H](CC)c3cc(OC)c(OC)c(OC)c3)c2)c1)c1cc(OC)c(OC)c(OC)c1 (relative stereo) [AP1903, 2-Piperidinecarboxylic acid, 1-[(2S)-1-oxo-2-(3,4,5-trimethoxyphenyl)butyl]-, 1,2-ethanediylbis [imino(2-oxo-2,1-ethanediyl)oxy-3,1-phenylene[(1R)-3-(3,4-dimethoxyphenyl)propylidene]] ester, [2S-[1(R*),2R*[S*[S*[1(R*),2R*]]]]]-(9CI)]
amount of AP1903 needed for effective signaling, converted to dose (cells): 0.014 to 0.14 mg/kg | amount of AP1903 needed in vitro for effective signaling of cells (cells): 10 to 100 nM | amount of AP1903 needed in vitro for effective signaling of cells, converted (cells; MW 1412 Da): 14 to 140 µg/L | elimination of inducible caspase-9 expressing T cells ([1]; 30 minutes from the end of a 2 hour intravenous infusion, CASPALLO trial): ≥ 90% | adverse events associated with AP1903 ([1]; CASPALLO and DOTTI trials): No adverse events; also recorded: no immediate or delayed adverse events | acute GVHD after administration of AP1903 ([1]; four subjects, CASPALLO trial): rapidly abrogated | resolution of skin and liver aGvHD ([2]; after AP1903 administration): ≤ 24 h | ablation of CD3+ΔCD19+ cells ([2]; within 30 minutes of infusion, two patients with grade I/II aGvHD, 0.4 mg/kg as 2-hour infusion): > 90% | further reduction of CD3+ΔCD19+ cells ([2]; within 24 hours): further log reduction | human T cells in spleen that were Vβ1+ (Cell A T cells (iCasp9)): 7.3±0.2% | fraction of Vβ1+ T cells recovered from spleen and bone marrow [3]: significantly reduced | PRAME specific reactivity of T cells transduced with PRAME-TCR and iCasp9 after AP1903 [4]: abrogated | well-tolerated doses ([5]; Phase I study): up to 1 mg/kg | adverse event considered possibly related to AP1903 ([5]; human, in vivo, 1 mg/kg): vasodilatation | AP1903 plasma levels versus dose ([5]; human, in vivo): directly proportional to dose | incidence of adverse events ([5]; human, in vivo): very low | serious adverse events ([5]; human, in vivo): No serious adverse events | severity of adverse events ([5]; human, in vivo): mild

B1: AAV54 SLL (TCR, V domains shown)
Valpha: AQSVTQLGSHVSVSERALVLLRCNYSSSVPPYLFWYVQYPNQGLQLLLKYTSAATLVKGINGFEAEFKKSETSFHLTKPSAHMSDAAEYFCAVSGQTGANNLFFGTGTRLTVIP
Vbeta: DSGVTQTPKHLITATGQRVTLRCSPRSGDLSVYWYQQSLDQGLQFLIQYYNGEERAKGNILERFSAQQFPDLHSELNLSSLELGDSALYFCASARWDRGGEQYFGPGTRLTVT
binding result [6]: recognises

B2: S196D (protein)
chain: GFGDVGALESLRGNADLAYILSMEPCGHCLIINNVNFCRESGLRTRTGSNIDCEKLRRRFSDLHFMVEVKGDLTAKKMVLALLELAQQDHGALDCCVVVILSHGCQASHLQFPGAVYGTDGCPVSVEKIVNIFNGTSCPSLGGKPKLFFIQACGGEQKDHGFEVASTSPEDESPGSNPEPDATPFQEGLRTFDQLDAISSLPTPSDIFVSYSTFPGFVSWRDPKSGSWYVETLDDIFEQWAHSEDLQSLLLRVANAVSVKGIYKQMPGCFNFLRKKLFFKTS
Basal Activity [7]: Decreased

B3: AAV46 SLL (TCR, V domains shown)
Valpha: GQQLNQSPQSMFIQEGEDVSMNCTSSSIFNTWLWYKQDPGEGPVLLIALYKAGELTSNGRLTAQFGITRKDSFLNISASIPSDVGIYFCAGIPRDNYGQNFVFGPGTRLSVLP
Vbeta: DVKVTQSSRYLVKRTGEKVFLECVQDMDHENMFWYRQDPGLGLRLIYFSYDVKMKEKGDIPEGYSVSREKKERFSLILESASTNQTSMYLCASTPWLAGGNEQFFGPGTRLTVL
binding result [6]: recognises

B4: IFN-gamma: interferon used to treat tumor cell lines for 48 h (protein, UniProt P01579 24-161, looked up)
Interferon gamma: QDPYVKEAENLKKYFNAGHSDVADNGTLFLGILKNWKEESDRKIMQSQIVSFYFKLFKNFKDDQSIQKSVETIKEDMNVKFFNSNKKKRDDFEKLTNYSVTDLNVQRKAIHELIQVMAELSPAAKTGKRKRSQMLFRG
HLA-class I expression on the cell surface (Ewing sarcoma cell lines): increased | HLA-class I expression on the cell surface [8]: increased
